Source: patent publication US20260182568A1, “DISINFECTANT AND PRESERVATIVE COMPOSITIONS” (BJBIOCHEM CO., LTD., priority 2023, published 2026)
Values after ≈ are worked out from the molar mass of the structure shown. One block for each compound: values may come before it.

Legend:
Staphylococcus aureus = assay: Disk diffusion antibacterial test; format: cell-based
Candida albicans = assay: Disk diffusion antibacterial test; format: cell-based
Malassezia restricta = assay: Sterilizing power (broth dilution MIC) of anti-dandruff hair care (antifungal) compositions
Aspergillus brasiliensis = assay: Disk diffusion antibacterial test; format: cell-based
Pseudomonas aeruginosa = assay: Disk diffusion antibacterial test; format: cell-based
Malassezia furfur = assay: Sterilizing power (broth dilution MIC) of anti-dandruff hair care (antifungal) compositions
Escherichia coli = assay: Disk diffusion antibacterial test; format: cell-based
Malassezia globosa = assay: Sterilizing power (broth dilution MIC) of anti-dandruff hair care (antifungal) compositions
A. brasiliensis = assay: Broth dilution MIC test of antimicrobial and preservative compositions; format: cell-based, Aspergillus brasiliensis; conditions: % only in method b353
Method: (§1) C. albicans was inoculated into Sabouraud dextrose broth and cultured at 25° C. for 24 hours. […] The liquid media used for E. coli, S. aureus, and P. aeruginosa (bacteria) were tryptic soy broth, and the liquid media used for C. albicans, and A. brasiliensis (fungi) were Sabouraud dextrose broth.

S. aureus = assay: as above; format: cell-based, Staphylococcus aureus; conditions: % only in method b353
Method: as §1

C. albicans = assay: as above; format: cell-based, Candida albicans; conditions: % only in method b353
Method: as §1

P. aeruginosa = assay: as above; format: cell-based, Pseudomonas aeruginosa; conditions: % only in method b353
Method: as §1

E. coli = assay: as above; format: cell-based, Escherichia coli; conditions: % only in method b353
Method: as §1

[1] = comparison over mixing ratios of Formula 1 with PO, ZPT or CB
[2] = Test A (Formula 1 / Formula 2), Tables 2-3
[3] = Test B (Formula 1 / Formula 3), Tables 16-17
[4] = Formula 1 mixed with climbazole (CB) at mixing ratio (%), broth dilution
[5] = Formula 1 mixed with zinc pyrithione (ZPT) at mixing ratio (%), broth dilution

Compound: CCCCCCCCCCCCN(CC(O)CO)CC(O)CO (stereo not drawn) [3,3′-(dodecylimino)bispropane-1,2-diol]
- clear zone where strain growth was inhibited, S. aureus (Staphylococcus aureus; 50 μl on disk, 1st repetition): 2 mm
- clear zone where strain growth was inhibited, S. aureus (Staphylococcus aureus; 50 μl on disk, 2nd repetition): 3 mm
- clear zone where strain growth was inhibited, S. aureus (Staphylococcus aureus; 50 μl on disk, 3rd repetition): 2.5 mm
- clear zone where strain growth was inhibited, S. aureus (Staphylococcus aureus; Mean of three repetitions): 2.5 mm
- clear zone where strain growth was inhibited, C. albicans (Candida albicans; 50 μl on disk, 1st repetition): 5 mm
- clear zone where strain growth was inhibited, C. albicans (Candida albicans; 50 μl on disk, 2nd repetition): 5 mm
- clear zone where strain growth was inhibited, C. albicans (Candida albicans; 50 μl on disk, 3rd repetition): 6 mm
- clear zone where strain growth was inhibited, C. albicans (Candida albicans; Mean of three repetitions): 5.3 mm
- sterilizing effect against Malassezia restricta (in words) (Malassezia restricta; [1]): lowest sterilizing effect
- clear zone where strain growth was inhibited, A. brasiliensis (Aspergillus brasiliensis; 50 μl on disk, 1st repetition): 1.5 mm
- clear zone where strain growth was inhibited, A. brasiliensis (Aspergillus brasiliensis; 50 μl on disk, 2nd repetition): 2 mm
- clear zone where strain growth was inhibited, A. brasiliensis (Aspergillus brasiliensis; 50 μl on disk, 3rd repetition): 2 mm
- clear zone where strain growth was inhibited, A. brasiliensis (Aspergillus brasiliensis; Mean of three repetitions): 1.8 mm
- clear zone where strain growth was inhibited, P. aeruginosa (Pseudomonas aeruginosa; 50 μl on disk, 1st repetition): 1 mm
- clear zone where strain growth was inhibited, P. aeruginosa (Pseudomonas aeruginosa; 50 μl on disk, 2nd repetition): 1.5 mm
- clear zone where strain growth was inhibited, P. aeruginosa (Pseudomonas aeruginosa; 50 μl on disk, 3rd repetition): 1 mm
- clear zone where strain growth was inhibited, P. aeruginosa (Pseudomonas aeruginosa; Mean of three repetitions): 1.2 mm
- sterilizing effect against Malassezia furfur (in words) (Malassezia furfur; [1]): lowest sterilizing effect
- clear zone where strain growth was inhibited, E. coli (Escherichia coli; 50 μl on disk, 1st repetition): 2.5 mm
- clear zone where strain growth was inhibited, E. coli (Escherichia coli; 50 μl on disk, 2nd repetition): 2.5 mm
- clear zone where strain growth was inhibited, E. coli (Escherichia coli; 50 μl on disk, 3rd repetition): 3 mm
- clear zone where strain growth was inhibited, E. coli (Escherichia coli; Mean of three repetitions): 2.6 mm
- sterilizing effect against Malassezia globosa (in words) (Malassezia globosa; [1]): lowest sterilizing effect

- minimum inhibitory concentration (MIC), A. brasiliensis (A. brasiliensis; [2]): 0.1%
- minimum inhibitory concentration (MIC), A. brasiliensis (A. brasiliensis; [3]): 0.1%
- minimum inhibitory concentration (MIC), S. Aureus (S. aureus; [2]): 0.1%
- minimum inhibitory concentration (MIC), S. Aureus (S. aureus; [3]): 0.1%
- minimum inhibitory concentration (MIC), C. albicans (C. albicans; [2]): 0.05%
- minimum inhibitory concentration (MIC), C. albicans (C. albicans; [3]): 0.05%
- minimum inhibitory concentration (MIC), P. Aeruginosa (P. aeruginosa; [2]): 0.25%
- minimum inhibitory concentration (MIC), P. Aeruginosa (P. aeruginosa; [3]): 0.25%
- minimum inhibitory concentration (MIC), E. coli (E. coli; [2]): 0.1%
- minimum inhibitory concentration (MIC), E. coli (E. coli; [3]): 0.1%
Compound: CCCCCCCCCCCCN(CC(O)CO)CC(O)CO (stereo not drawn) [Comparative Example1, 3,3′-(dodecylimino)bispropane-1,2-diol]

Compound: CC(C)(C)C(=O)C(Oc1ccc(Cl)cc1)n1ccnc1 (stereo not drawn) [climbazole]
- MIC (Malassezia restricta; [4]): 4 µg/mL
- MIC (Malassezia furfur; [4]): 20 µg/mL
- MIC (Malassezia globosa; [4]): 1 µg/mL

- MIC (Malassezia restricta; Malassezia restricta): 18 µg/mL (≈ 75.8 µM)
- MIC (Malassezia furfur; Malassezia furfur): 30 µg/mL (≈ 126 µM)
- MIC (Malassezia globosa; Malassezia globosa): 4 µg/mL (≈ 16.9 µM)
Compound: Cc1cc(CC(C)CC(C)(C)C)n(O)c(=O)c1 (stereo not drawn) [piroctone olamine]

Compound: zinc pyrithione
- MIC (Malassezia restricta; [5]): 4 µg/mL
- MIC (Malassezia furfur; [5]): 7 µg/mL
- MIC (Malassezia globosa; [5]): 1 µg/mL
